Legend:
[1] = target: T1, human dopamine D1-receptor (Homo sapiens, UniProt P21728); assay: Induction of pBHluc1.3 (TRE) via dopamine-D1-receptor in co-transfected COS-7 cells; type: cell-based; conditions: 10 ng/ml TPA or 1 μM apomorphine, 18 h
cell line CHO C6-13 = assay: Luciferase expression in CRE-pretest cell line CHO C6-13; conditions: 3 hours treatment, FIG. 33
Protocol: The transfection by electroporation was carried out as follows: after removal of the medium the cells were detached from the surface by means of a trypsin/PBS solution, suspended in medium and pelleted for 5 minutes at 250×g. The cells were washed in HBS (10 mM HEPES pH 7.4, 150 mM NaCl) and pelleted by centrifuging. The cells were suspended in HBS in a density of 1×10^7 cells/ml. 0.8 ml of cell suspension were mixed with 20 μg of DNA of the plasmid pADneo2-C6-BGL linearised with ScaI and transferred into an electroporation dish. […] After the electroporation the cells were diluted in the medium mentioned above, 20,000 cells per 90 mm culture dish was sown and incubated overnight at 37° C.
Two batches of each were treated with 20 μM forskolin and incubated for a further 5 hours at 37° C. Then the medium was removed from all the cells and the cells were washed with PBS.
Cells of the cell line CHO C6-13 were treated for 3 hours with various substances which alter the intracellular concentration of cAMP or IP3 /DAG or simulate a change in concentration, and also treated with receptor-specific agonists which influence the above-mentioned signal transduction mechanisms.

[2] = target: T1, human dopamine D1-receptor; assay: Luciferase activity in dopamine D1-receptor test cell line CHO 13D1-38
Protocol: The cell line CHO C6-13 characterised above was transfected, as described under a), by electroporation with plasmid pAD-CMV2:D1, which had previously been linearised with FspI.
For the use of test cell lines in an automatic screening system with a high throughput rate it is advantageous to use microtitre plates having 96 wells per plate. For this purpose, 60,000 cells (CHO C6-13 or CHO 13D1-38) were sown in 200 μl medium per well in light-impermeable microtitre plates coated with tissue culture
(Microlite™, Dynatech Labroatories) and incubated overnight at 37° C. Then various chemicals were added to the cells and they were incubated for a certain length of time (usually 3 hours). After removal of the medium the cells were washed with PBS, lysed in 1% Triton X-100 and the luciferase activity was measured in a 96-well luminometer (ML-1000, Dynatech) (FIG. 36).
In order to simulate a screening process in which the test substances are preferably supplied in a uniform solvent, a final concentration of 1% DMSO was used in this experiment.

[3] = target: T1, human dopamine D1-receptor; assay: Induction of pADneo2-C6-BGL (CRE) via dopamine-D1-receptor in co-transfected COS-7 cells; conditions: COS-7; 20 μM forskolin or 1 μM apomorphine, 18 h
human 5HT2-receptor [4] = target: T2, human 5HT2-receptor (Homo sapiens, UniProt P28223); assay: Induction of pBHluc1.3 (TRE) via 5-HT2-receptor in co-transfected COS-7 cells; type: cell-based
Protocol: (§1) Induction was carried out with i) 20 μM forskolin (Sigma P8139), ii) 10 μα-methylserotonin-maleate (RBI M-110), and iii) 10 μα-methylserotonin-maleate and 10 μM ketanserin-tartrate (RBI S-006). […] It follows, from the above results, that, depending on 5-HT2 -receptors, only regulation elements which respond to IP3 /DAG (TRE), but not regulation elements which respond to cAMP (CRE) are selectively activated.

human 5HT2-receptor [5] = target: T2, human 5HT2-receptor; assay: Induction of pADneo2-C6-BGL (CRE) via 5-HT2-receptor in co-transfected COS-7 cells; type: cell-based; conditions: 20 μM forskolin or 10 μ α-methylserotonin-maleate
Protocol: as §1

human 5HT2-receptor [6] = target: T2, human 5HT2-receptor; assay: cell-based; conditions: read-out: induction of luciferase activity, clone A20/5HT2-11
Text: The human 5HT2-receptor is another example of a receptor coupled to the phospholipase C-signal transduction pathway. The TRE-cell line A20 is therefore also suitable in this case as a starting cell line for establishing a test cell line in order to discover substances which modulate the activity of the 5HT2-receptor.
The plasmid pAHyg-5HT2, linearised with BglII, was for this purpose transfected into the cell line A20 by electroporation as described under a) and grown in selection medium.
For this purpose the cells were simultaneously treated with a constant amount of serotonin (1 μg) and increasing amounts of antagonist.

T1 sequence (P21728 whole entry): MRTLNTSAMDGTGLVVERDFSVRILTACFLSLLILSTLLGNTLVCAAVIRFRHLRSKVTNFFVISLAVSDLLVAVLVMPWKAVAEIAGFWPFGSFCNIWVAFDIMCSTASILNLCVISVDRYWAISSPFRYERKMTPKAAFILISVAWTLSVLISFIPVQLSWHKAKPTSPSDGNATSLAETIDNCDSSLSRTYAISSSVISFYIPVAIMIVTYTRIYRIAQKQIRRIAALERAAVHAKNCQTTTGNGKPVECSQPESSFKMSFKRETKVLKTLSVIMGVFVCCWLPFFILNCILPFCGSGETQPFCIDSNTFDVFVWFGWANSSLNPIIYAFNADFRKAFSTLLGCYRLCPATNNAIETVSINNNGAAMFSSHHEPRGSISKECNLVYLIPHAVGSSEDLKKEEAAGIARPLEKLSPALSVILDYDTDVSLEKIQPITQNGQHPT
T2 sequence (P28223 whole entry): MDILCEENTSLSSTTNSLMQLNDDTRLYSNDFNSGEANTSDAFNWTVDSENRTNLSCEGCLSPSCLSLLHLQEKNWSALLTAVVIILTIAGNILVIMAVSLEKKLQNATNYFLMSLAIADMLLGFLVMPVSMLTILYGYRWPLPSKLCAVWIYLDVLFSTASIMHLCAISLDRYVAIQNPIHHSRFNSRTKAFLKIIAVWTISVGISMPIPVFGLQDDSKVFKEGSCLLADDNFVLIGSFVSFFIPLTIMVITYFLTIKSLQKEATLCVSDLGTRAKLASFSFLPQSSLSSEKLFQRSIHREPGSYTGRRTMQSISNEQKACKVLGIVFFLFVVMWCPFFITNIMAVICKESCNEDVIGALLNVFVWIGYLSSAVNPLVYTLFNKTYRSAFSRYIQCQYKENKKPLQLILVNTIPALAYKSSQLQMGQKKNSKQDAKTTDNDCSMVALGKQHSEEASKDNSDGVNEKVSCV

CN1CCc2cccc3c2[C@H]1Cc1ccc(O)c(O)c1-3 [apomorphine]
induction of luciferase expression (TRE) [1]: not by apomorphine | change in luciferase expression/activity (cell line CHO C6-13): did not bring about any significant change in the luciferase activity | increase in luciferase activity, clone CHO 13D1-38 ([2]; 10 μM apomorphine, 4 hours): highest increase in luciferase activity | concentration which brings about maximum induction of the luciferase reporter gene ([2]; apomorphine final concentration): 1 µM | time after stimulation at which increased luciferase activity was measured ([2]; apomorphine, FIG. 37A): one | time to maximum luciferase activation ([2]; apomorphine, FIG. 37A): 2.5 h | time up to which luciferase activation remained constant ([2]; apomorphine, FIG. 37A): 4 h | dependency of ED50 values on duration of receptor stimulation ([2]; apomorphine, FIG. 37B): no significant dependency | induction of luciferase expression (CRE) [3]: induced by forskolin and by apomorphine

O=C(c1ccc(F)cc1)C1CCN(CCn2c(=O)[nH]c3ccccc3c2=O)CC1 [ketanserin-tartrate]
prevention of agonist-mediated induction (human 5HT2-receptor [4]; 10 μM α-methylserotonin-maleate and 10 μM ketanserin-tartrate): prevented

CC(N)Cc1c[nH]c2ccc(O)cc12 (stereo not drawn) [α-methylserotonin-maleate]
induction of luciferase expression (TRE) (human 5HT2-receptor [4]; COS-7, 10 ng/ml TPA or 10 μg α-methylserotonin-maleate, 18 h): induced both by TPA and by α-methylserotonin-maleate | induction of luciferase expression (CRE) (human 5HT2-receptor [5]): not by the 5-HT2-receptor-agonist α-methylserotonin-maleate | fold induction at 10 µM (human 5HT2-receptor [6]): 4 to 5
